Measurements as given in patent US20110300198A1, “HYDROCOLLOID - ESSENTIAL OIL PATCHES” (priority 2010, published 2011).
Counter-ions that a name gives are not always drawn. Marks after values point to notes of the source that are not given here.

Key:
[1] = Decomposition of internal standards in blood and skin extract (GC, GC-MS); format: in vitro ADME, rat; settings: for Stability in the blood: GC-MS
Description: Linalyl isovalerate and geranyl formate were tested for their suitability as internal standards for linalool and linalyl acetate using headspace (HS)-SPME. Linalyl isovalerate was chosen as the most appropriate internal standard on the basis of area formed under the peak. A stock solution of linalyl isovalerate in acetonitrile (25 mg L^−1) was further diluted with acetonitrile to produce an aqueous solution of linalyl isovalerate (5 mg L^−1). A 10-μl volume of the aqueous linalyl isovalerate stock solution was added as the internal standard to each sample. Standard was prepared from 0.5 ml of blank blood, 10 μl internal standard (0.0026 mg linalyl isovalerate in 25 ml acetonitrile) and an appropriate dilution of lavender oil in 10 μl acetonitrile. Lavender oil was first dissolved in acetonitrile (625 mg L^−1) and further diluted with acetonitrile to make intermediate standards (0.5, 1, 5, 25 and 125 mg L^−1). The calibration curves were plotted using the peak area ratio of linalool (the main constituent of lavender oil) and linalyl isovalerate vs. linalool concentration. A standard stock solution of lavender oil (625 mg L^−1) was prepared in acetonitrile. Calibration standards for determination of linear dynamic range were prepared by serial dilutions with acetonitrile. For quantitative analysis of lavender oil in the blood, working standard solutions containing 0.5, 1, 5, 25 and 125 mg L^−1 of lavender were prepared by dilution of the 625 mg L^−1 solution with acetonitrile. […] The compounds absorbed on the fiber were detached and analyzed by exposing the fiber for 5 min in the injection port.
Two standards were checked for their suitability to this study: linalyl isovalerate and geranyl formate. […] Thus, although it is not possible to quantify linalool since the lavender essential oil may not be its only source, it is possible to quantify other components of lavender, and linalyl isovalerate was chosen to serve as the standard in the blood.

[2] = In-vivo experiment with HP-5 column, constituents in blood; set-up: species or system rat; settings: male, Sprague-Dawley, rat, in vivo
Text: (§1) Male Sprague-Dawley rats, weighing 300-350 g, were used in the studies (Harlan, Rehovot, Israel). The experimental protocols were approved by the Hebrew University of Jerusalem Committee on the Use and Care of Animals. Rats were maintained under specified-pathogen-free (SPF) conditions and were allowed to acclimate to the environment for at least 7 days before their use in the study. Rats were anesthetized and the fur on their stomach shaved prior to exposure. Gum karaya patches with and without lavender essential oil were applied to the rat's stomach skin. Each rat was housed in an individual cage in order to prevent oral contamination of the essential oil by one rat eating another's patch. Blood samples (0.5 ml) were taken at 0, 12, 24, 36, 48 and 60 h from a nick at the tip of tail to determine contents of essential-oil components. Rats were restrained and the tail was gently massaged to facilitate blood collection. Blood samples were collected in vials containing 0.1 ml heparin (100 kU, Sigma). A 10-μl volume of aqueous linalyl isovalerate stock solution was added as an internal standard to each blood sample and samples were stored at −80° C. After 60 h, patches were removed and the application site was wiped with 70% alcohol. Animals were sacrificed and the patch of stomach skin to which the essential oil patch had been applied was removed and minced into small pieces. The skin pieces were placed in 1 ml of ethanol containing linalyl isovalerate as the internal standard and sonicated for 30 min after heating to 50° C. A 10-μl aliquot was then injected straight into the gas chromatograph. A urine sample (0.5 ml) was obtained from the bladder immediately after sacrifice. Urine samples were similarly analyzed by gas chromatography (GC).
Blood (0.5 ml) or phosphate buffer (0.5 ml) was collected at t=0, 12, 24, 36, 48 and 60 h. Blood samples were placed in Eppendorf heparin-coated glass vials (Agilent) by heparin-washed syringe, which were sealed with septa and screw caps. Each vial contained 100 μl of heparin and blood samples were frozen at −80° C. for storage. Prior to analysis, the blood or phosphate buffer was thawed to room temperature, a 10-μl volume of internal standards (6.5 mg linalyl isovalerate and 6.5 mg geranyl formate in 25 ml acetonitrile) was added to the vial and then the mixture was vortexed. The vials were tightly capped using a clear cap with septum. The septa were pre-punctured immediately before analysis using a needle to facilitate the insertion of the fiber sheath. The fiber sheath was inserted through the septum, and positioned to expose the fiber in the center of the headspace. The vial was placed on a heating block to maintain temperature at a constant 50° C. and the solid-phase microextraction (SPME) assembly was clamped securely. Absorption time was 30 min. No stirring was required. After absorption, the SPME fiber sheath was immediately transferred to the GC injector for desorption for 5 min and GC analysis.
GC was performed on an Agilent 7890A gas chromatograph equipped with a split/splitless capillary injector, flame ionization detection (FID) system and GC Chem Station (Version B.03.01; Agilent Technologies 2007). Chromatography was carried out on a WAX or HP-5 column (30 m×0.32 mm×0.25 μm). The GC operating conditions were: splitless or split 1:40 injector 240° C., oven 50° C. for 1 min and then 10° C. min^−1 to 160° C., then 25° C. min^−1 to 240° C. and held for 6 min; the carrier gas was hydrogen.
In this experiment, patches containing lavender essential oil were adhered to the abdomen area. Patches without essential oil served as blanks. […] Detection under splitless conditions facilitated the detection of linalyl acetate, linalool, camphor, borneol and α-terpineol, the latter two being additional constituents detected only under these conditions. High concentrations of linalool, borneol and camphor were detected, in comparison to low levels of terpeneol and linalyl acetate. […]

[3] = Preliminary in-vivo experiment, constituents in blood (GC, WAX column); set-up: species or system rat; settings: rat, in vivo
[4] = cited from earlier work
[5] = In-vivo experiment with WAX column, constituents in blood; set-up: species or system rat; settings: 7.5% lavender oil patch on abdomen; split injection
Text: as §1, with “After 60 h, patches were removed and the application site was wiped with 70% alcohol. Animals were sacrificed and the patch of stomach skin to which the essential oil patch had been applied was removed and minced into small pieces. The skin pieces were placed in 1 ml of ethanol containing linalyl isovalerate as the internal standard and sonicated for 30 min after heating to 50° C. A 10-μl aliquot was then injected straight into the gas chromatograph. A urine sample (0.5 ml) was obtained from the bladder immediately after sacrifice.” left out, “(GC). […]” for “(GC).”
Patches that included lavender essential oil were adhered to the abdomen skin for 60 h. […] Between 12 and 36 h, a similar, non-significant change in levels was detected. […]

[6] = Ex-vivo transfer of essential-oil constituents through the skin in Franz diffusion cells; format: in vitro ADME, rat; settings: for Accumulated concentration transferred through the skin: from gum karaya-Lavandula angustifolia essential oil patch (7.5% oil); for Accumulated concentration diffused through the skin: mixture of Lavandula angustifolia essential oil and almond oil rubbed on the skin
Description: Ex-vivo release studies were performed in Franz diffusion cells (FCs) (PermeGear, Hellertown, Pa.). Stomach skin pieces (1.2 cm×1.2 cm) from a male rat, which were stored in the freezer for 1 month, were thawed at room temperature and placed in glass FCs. The surface area for absorption was 0.64 cm2. The FCs were thermoregulated with a water jacket at 32° C. The 4.5-ml volume of the receptor chamber of the FC was filled with a receptor solution containing 5% (w/v) bovine serum albumin (BSA) diluted with phosphate buffer pH 7.4. […] The receptor solution was continuously agitated with a magnetic stirrer. During the experiments, the donor compartments and sampling arms were sealed to prevent evaporation. The fluid in the receptor chamber was removed after different periods of time (0, 6, 12, 24, 36 and 48 h) and replaced with fresh phosphate buffer solution. Samples were stored at 4° C. after sampling, prior to analysis. Samples were analyzed in a gas chromatograph (Agilent Technologies, Santa Clara, Calif.) with a WAX 30 m×0.32 mm×0.25 μm (Agilent) column.
Transdermal delivery of essential-oil components through rat skin from both lavender essential oil, which includes a high proportion of terpenoids, and Valencia orange essential oil, which includes a considerable amount of terpene, entrapped within gum-karaya-based patches, was examined. In addition to the regular patch adhered to the skin to be tested for essential-oil delivery by the traditional FCs and by in vivo tests (detailed below), another experiment was performed in which the skin was smeared with an almond-essential oil mixture, in order to partially imitate the situation in which the skin is massaged in an aromatherapy session. All experiments were conducted at ambient temperature and the inclusion of the essential oil as part of the almond oil-essential oil mixture (for the massage-like simulation) was equal in quantity and proportion to the inclusion of essential oil within the patch.

[7] = cited from earlier work; remark: listed apart in the source

C=CC(C)(CCC=C(C)C)OC(=O)CC(C)C (stereo not drawn) [linalyl isovalerate]
Stability in the blood [1]: decomposes in the blood
Stability in the skin extract ([1]; skin with essential oil-containing patch): did not decompose

CC1=CCC(C(C)(C)O)CC1 (stereo not drawn) [α-Terpeneol, α-Terpineol]
Level in blood from 12 h onwards [2]: 5 to 9 ng/mL

CC12CCC(CC1=O)C2(C)C (stereo not drawn) [Camphor]
Detection in blood [3]: No levels of camphor were detected
Solubility in water [4]: relatively high
Level in blood after 60 h [5]: no traces
% diffused (of initial amount of entrapped essential oil) ([6]; Almond-lavandula mixture, 0 h): 0.00^a %
% diffused (of initial amount of entrapped essential oil) ([6]; Almond-lavandula mixture, 6 h): 0.01 ± 0.01^a %
% diffused (of initial amount of entrapped essential oil) ([6]; Almond-lavandula mixture, 12 h): 1.15 ± 1.26^a %
% diffused (of initial amount of entrapped essential oil) ([6]; Almond-lavandula mixture, 24 h): 2.28 ± 0.08^a %
% diffused (of initial amount of entrapped essential oil) ([6]; Lavandula patch, 0 h): 0.00^a %
% diffused (of initial amount of entrapped essential oil) ([6]; Lavandula patch, 6 h): 0.70 ± 0.04^b %
% diffused (of initial amount of entrapped essential oil) ([6]; Lavandula patch, 12 h): 1.02 ± 0.01^c %
% diffused (of initial amount of entrapped essential oil) ([6]; Lavandula patch, 24 h): 2.10 ± 0.32^d %
Accumulated concentration transferred through the skin ([6]; 6 h): 0.51 ± 0.33^a mg/L
Accumulated concentration transferred through the skin ([6]; 12 h): 0.74 ± 0.02^b mg/L
Accumulated concentration transferred through the skin ([6]; 24 h): 1.53 ± 0.13^c mg/L
Accumulated concentration diffused through the skin ([6]; 6 h): 0.01 ± 0.03^a mg L^−1
Accumulated concentration diffused through the skin ([6]; 12 h): 0.89 ± 0.98^a mg L^−1
Accumulated concentration diffused through the skin ([6]; 24 h): 1.78 ± 0.06^a mg L^−1
Calculated steady-state flux ([6]; rubbing in a mixture with almond oil): 5.7×10^−4 mg.cm^−2 h^−1
Calculated steady-state flux ([6]; transferred from a lavender essential oil patch): 4.3×10^−4 mg.cm^2 h^−1
Log P [7]: about 3
concentration at 60 h [2]: 35 ng/mL

C=C(C)[C@H]1CC=C(C)CC1 [d-Limonene]
Log P [7]: about 4

CC(C)=CCC/C(C)=C/COC=O [geranyl formate]
Stability in the blood [1]: decomposes in the blood

CC1(C)C2CCC1(C)C(O)C2 (stereo not drawn) [borneol, Borneol]
concentration at 60 h [2]: 31 ng/mL
